Experimental data reported in patent US20220305093A1, “NK-LYSIN PEPTIDE COMPOSITIONS AND METHODS FOR THEIR USE AS ANTIMICROBIAL/ANTIVIRAL AGENTS” (priority 2021, published 2022).
In brackets after ≈: the same amount, converted by molar mass.

How the values were obtained:
[1] = system: Escherichia coli (ATCC 11775); experiment: microbe, parasite or virus in culture; conditions: Escherichia coli, ATCC11775
Description: (§1) The minimum inhibitory concentration (MIC) is defined as the lowest concentration of an antimicrobial ingredient or agent that is bacteriostatic (prevents the visible growth of bacteria).
(§2) Mueller Hinton broth (MHB) comprising 0.01% v/v acetic acid (Sigma Aldrich; St Louis, Mo.) and 0.2% w/v bovine serum albumin (Sigma Aldrich). Equal concentrations of bacteria were plated in wells of standard tissue culture microplates at a density of 0.5×10^8 CFU ml^−1 in MHB per well. Treatments were equivalent volumes (50 μl) of NK-lysin peptides in concentrations of 0 to 150 μg/ml, or no NK-lysin peptides for control wells. The treated plates were incubated at […] and optical densities were determined for each well at 0 minutes, 1, 2 and 3 hours and after an overnight incubation.

[2] = system: Klebsiella oxytoca (ATCC 49131); experiment: microbe, parasite or virus in culture
Description: as §1, §2

[3] = system: Klebsiella pneumoniae (patient isolate); experiment: microbe, parasite or virus in culture
Description: as §1, §2

[4] = system: Pseudomonas aeruginosa (ATCC 9027); experiment: microbe, parasite or virus in culture
Description: as §1, §2

[5] = system: Salmonella typhimurium (ATCC 14028); experiment: microbe, parasite or virus in culture; conditions: Salmonella enterica
Description: as §1, §2

[6] = system: Shigella sonnei (ATCC 25931); experiment: microbe, parasite or virus in culture
Description: as §1, §2

[7] = system: Streptococcus mutans (isolate); experiment: microbe, parasite or virus in culture
Description: as §1, §2

[8] = system: Streptococcus pyogenes (ATCC 19615); experiment: microbe, parasite or virus in culture
Description: as §1, §2

[9] = system: gram-positive and gram-negative bacteria; experiment: organism not typed
Source text: The gram-positive bacterial strains utilized were Streptococcus pyogenes (ATCC 19615) and Streptococcus mutans (isolate obtained from a patient at King Abdul-Aziz hospital). The gram-negative bacterial strains used included Salmonella typhimurium (ATCC 14028), Escherichia coli (ATCC 11775), Pseudomonas aeruginosa (ATCC 9027), Klebsiella oxytoca (ATCC 49131), Shigella sonnei (ATCC 25931), and Klebsiella pneumoniae (patient isolate). Tryptic soy broth (TSB) was used to grow all bacterial strain overnight, after which the bacteria were washed using phosphate-buffered saline (PBS, NaCl 8 g/L, KCl 0.2 g/L, Na2HPO4 1.4 g/L, KH2PO4 0.24 g/L), and then diluted in the same buffer with 1/1000 TSB to an OD600 nm of 0.08-0.1 (1×10^8) colony-forming units (CFU)/ml, which was determined after performing retrospective plate counts on tryptic soy agar. Unless otherwise noted, the experiments in the following examples employed this inoculum preparation apart from when minimum inhibitory and bactericidal concentrations were determined, which employed cells in Muller Hinton broth. […]
Mueller Hinton broth (MHB) comprising 0.01% v/v acetic acid (Sigma Aldrich; St Louis, Mo.) and 0.2% w/v bovine serum albumin (Sigma Aldrich). […] The treated plates were incubated at […] and optical densities were determined for each well at 0 minutes, 1, 2 and 3 hours and after an overnight incubation. […]

[10] = Pseudomonas aeruginosa, ATCC9027
[11] = Streptococcus pyogenes, ATCC19615

## NC[C@H]1O[C@H](O[C@H]2[C@H](O)[C@@H](O[C@H]3O[C@H](CO)[C@@H](O)[C@H](N)[C@H]3O)[C@H](N)C[C@@H]2N)[C@H](O)[C@@H](O)[C@@H]1O [Kanamycin, kanamycin, reference compound]
[1]
  MBC: 15.6 µg/mL (≈ 32.2 µM)
  MIC: 15.62 ± 0.011 µg/mL (≈ 32.2 µM)
[2]; K. oxytoca ATCC 49131
  MIC: 31.25 ± 0.00 µg/mL (≈ 64.5 µM)
[2]; Klebsiella oxytoca, ATCC49131
  MBC: 31.2 µg/mL (≈ 64.5 µM)
  MIC: 31.2 µg/mL (≈ 64.5 µM)
[3]; K.Pneumonia (isolate)
  MIC: 31.25 ± 0.00 µg/mL (≈ 64.5 µM)
[3]; Klebsiella pneumoniae
  MBC: 31.2 µg/mL (≈ 64.5 µM)
  MIC: 31.2 µg/mL (≈ 64.5 µM)
[4]; P.aeruginosa ATCC 9027
  MIC: 62.5 ± 0.00 µg/mL (≈ 129 µM)
[4]; [10]
  MBC: 62.5 µg/mL (≈ 129 µM)
  MIC: 62.5 µg/mL (≈ 129 µM)
[5]
  MBC: 62.5 µg/mL (≈ 129 µM)
  MIC: 62.5 µg/mL (≈ 129 µM)
[6]; Sh. sonnei ATCC 25931
  MIC: 7.81 ± 0.026 µg/mL (≈ 16.1 µM)
[6]; Shigella sonnei, ATCC25931
  MBC: 7.81 ± 0.026 µg/mL (≈ 16.1 µM)
[6]; Shigella sonnei, ATCC25931, Sh. sonnei ATCC 25931
  MIC: 7.8 µg/mL (≈ 16.1 µM)
[7]; St. mutans (isolate)
  MIC: 62.5 ± 0.023 µg/mL (≈ 129 µM)
[7]; Streptococcus mutans
  MBC: 62.5 ± 0.23 µg/mL (≈ 129 µM)
  MIC: 62.5 µg/mL (≈ 129 µM)
[8]; St. pyogenes ATCC 19615
  MIC: 62.5 ± 0.00 µg/mL (≈ 129 µM)
[8]; [11]
  MBC: 62.5 µg/mL (≈ 129 µM)
  MIC: 62.5 µg/mL (≈ 129 µM)
[9]
  MIC: 7.8 to 62.5 µg/mL (≈ 16.1 to 129 µM)
